# Measured values from patent publication US20230000842A1, “METHODS OF TREATING CARTILAGE DISORDERS THROUGH INHIBITION OF CLK AND DYRK” (SAMUMED, LLC, priority 2019, published 2023).
# Legend:
# CLK2 kinase = CLK2 kinase (Homo sapiens, UniProt P49760); assay: CLK2 kinase activity assay (Z-lyte FRET); format: biochemical; conditions: Z-lyte Ser/Thr 6 peptide, 60 μM ATP, 1 h at room temperature;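 further: FRET read-out as coumarin to fluorescein emission ratio, unphosphorylated peptide as 0% and phosphorylated peptide as 100% controls, duplicate reactions, non-linear regression fit of dose-response curves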
# Description: This is a non-radioactive assay using fluorescence resonance energy transfer (FRET) between coumarin and fluorescein to detect kinase activity which is represented as a ratio of coumarin emission/fluorescein emission.
# The mixture was allowed to incubate with the representative compounds for one hour at room temperature. All reactions were performed in duplicate. Unphosphorylated (“0% Control”) and phosphorylated (“100% control”) forms of Ser/Thr 6 served as control reactions. Additionally, an 11-point dose-response curve of Staurosporine (1 μM top) was run to serve as a positive compound control.
# After incubation, Development Reagent A was diluted in Development Buffer then added to the reaction and allowed to further incubate for one hour at room temperature.
# Dose-response curves were generated and inhibitory concentration (IC50) values were calculated using non-linear regression curve fit in the Dotmatics' Studies Software (Bishops Stortford, UK).
# [1] = system: primary human mesenchymal stem cells (hMSCs); assay: Chondrogenesis screening using primary human mesenchymal stem cells; format: cell-based; conditions: Homo sapiens, Mesenchymal stem cells, hMSC chondrogenesis; for Emax: maximum activity relative to TGF-β3 (10 ng/mL) positive control, read-out: Max. Activity as % TGF-β3 activity
# How it was run: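 Derived values are EC50 for 50% chondrogenesis, maximal activity and the dose giving it. These come from nodule area in passage 3–6 primary hMSCs, expressed as fold change over the mean of 3 same-plate DMSO wells, 2–3 replicates per concentration. TGF-β3 served as positive control.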
# [2] = system: MMP-3 levels in supernatant of chondrocytes stimulated with IL1-β; assay: Chondrocyte protection assay compound screening (MMP-3 LANCE Ultra); format: cell-based, human; conditions: IL1-β 10 ng/mL overnight, 11-point curves from 3 μM to 0.05 nM; for Emax: read-out: Maximum % Inhibition
# Description: Human Chondrocyte Cell Culture: Primary human chondrocytes were purchased from Lonza (Walkersville, Md.) and expanded in Chondrocyte Growth Media (CGM, Lonza). Cells between passage 2 and 5 were used for the experiments.
# Chondrocytes were plated at 8,000 cells/well in 40 μL/well Chondrocyte Differentiation Medium (Lonza; 500 mL Basal Medium, 25 mL FBS, 0.5 mL GA-1000, 1 mL R3-IGF, 2.5 mL bFGF, 0.5 mL Transferrin, and 1 mL Insulin). After 2 hours of incubation at 37° C. and 5% CO2, IL1-β (Peprotech, Rocky Hill, N.J.) was added to a final concentration of 10 ng/mL. 11 wells in 1 row were left unstimulated for normalization and calculating EC50 values. Cells were incubated at 37° C. and 5% CO2 overnight. Assay plates are spun, 25 μl of supernatant media was collected using (S2 pipettor, Apricot Designs). Cells were lysed using 10 μL of (Cell Titer-Glo, Promega). Luminescent signal detected using an En Vision Multilabel reader (Perkin Elmer). MMP-3 levels were measured in supernatant. Supernatant diluted 1:7 in DMEM. MMP-3 levels in the supernatant were measured using MMP-3 LANCE Ultra detection kit (Perkin Elmer). Briefly, 5 μL of diluted supernatant was transferred to low-volume 384 well plates using (S2 pipettor, Apricot Designs). A standard curve was prepared using MMP-3 analyte (range […]). 1.7 μL of 8× mix of Eu-labelled anti-MMP-3 antibody and ULight labelled anti-MMP-3 antibody was added to the plates using Mantis Liquid handler (Formulatrix). Plates were incubated overnight at room temperature. LANCE signal was detected using an EnVision Multilabel reader (Perkin Elmer), equipped with TR-FRET using excitation wavelength of 320 nm and two emission wavelengths of 615 nm and 665 nm. Data was analyzed according to the kit protocol, using the ratio of […] and the standard curve values were used to calculate the amount of MMP3 in the […] (in pg/ml). The normalized averages (fold change over IL1-β stimulated) for each compound concentration were calculated. EC50 and maximum % inhibition values were calculated using the dose-response nonlinear regression curve-fit in Dotmatics.
# [3] = system: Wnt pathway activity (SW480 colon carcinoma cells stably expressing the Sp5-Luc reporter); assay: Wnt pathway activity screening assay (Sp5-Luc reporter gene assay); conditions: Homo sapiens, SW480, Table 4; SW480 cells stably expressing Sp5-Luc reporter, 10-point dose-response from 10 μM, 36 to 48 hours
# CLK3 kinase = CLK3 kinase (Homo sapiens, UniProt P49761); assay: CLK3 kinase activity assay (Z-lyte FRET); format: biochemical; conditions: Z-lyte Ser/Thr 18 peptide, 156 μM ATP, 1 h at room temperature;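 further: kinase activity read as coumarin/fluorescein emission ratio by FRET, unphosphorylated peptide as 0% and phosphorylated peptide as 100% control, values from non-linear regression of dose-response curves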
# Chain of CLK3 kinase (P49761 whole entry): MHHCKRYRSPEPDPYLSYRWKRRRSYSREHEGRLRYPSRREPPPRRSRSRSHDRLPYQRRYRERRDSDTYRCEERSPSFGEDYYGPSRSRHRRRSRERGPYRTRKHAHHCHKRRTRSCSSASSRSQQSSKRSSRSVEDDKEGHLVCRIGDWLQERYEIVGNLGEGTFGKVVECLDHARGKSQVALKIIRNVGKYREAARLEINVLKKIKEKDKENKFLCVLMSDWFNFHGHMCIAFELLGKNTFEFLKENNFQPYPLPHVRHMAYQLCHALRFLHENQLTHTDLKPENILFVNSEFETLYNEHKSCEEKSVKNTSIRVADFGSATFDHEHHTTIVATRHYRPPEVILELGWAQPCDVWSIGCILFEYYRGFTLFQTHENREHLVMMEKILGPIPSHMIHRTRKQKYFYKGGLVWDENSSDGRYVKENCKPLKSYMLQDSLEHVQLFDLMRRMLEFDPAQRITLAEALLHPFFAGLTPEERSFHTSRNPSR
# Chain of CLK2 kinase (P49760 whole entry): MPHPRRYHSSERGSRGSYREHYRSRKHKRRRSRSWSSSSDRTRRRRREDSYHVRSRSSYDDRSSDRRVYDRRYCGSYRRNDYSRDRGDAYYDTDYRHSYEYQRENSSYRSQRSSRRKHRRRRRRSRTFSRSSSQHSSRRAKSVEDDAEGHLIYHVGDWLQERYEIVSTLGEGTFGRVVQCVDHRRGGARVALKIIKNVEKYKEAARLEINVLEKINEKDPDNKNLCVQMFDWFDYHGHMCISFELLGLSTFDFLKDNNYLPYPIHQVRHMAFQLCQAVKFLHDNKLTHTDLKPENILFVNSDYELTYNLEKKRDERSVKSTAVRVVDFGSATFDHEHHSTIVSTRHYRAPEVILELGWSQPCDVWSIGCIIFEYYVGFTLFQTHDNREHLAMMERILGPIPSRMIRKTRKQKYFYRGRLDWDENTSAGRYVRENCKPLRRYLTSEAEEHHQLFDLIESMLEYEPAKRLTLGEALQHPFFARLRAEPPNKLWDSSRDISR
EC50 (CLK2 kinase) [nM],EC50 [3] [nM],"EC50 ([1]; concentration required to induce 50% levels of chondrogenesis with TGF-β3 as positive control, read-out: Conc (nM) of 50% TGF-β3 activity) [nM]",EC50 (CLK3 kinase) [nM],Compound,Emax [1] [%],"EC50 ([2]; Homo sapiens, Chondrocyte) [nM]","Emax ([2]; Homo sapiens, Chondrocyte) [%]",EC50 [2] [nM],Maximum % Inhibition [2] [%]
72,479,–,–,O=C(Nc1c[nH]nc1C(=O)Nc1cncc(-c2cccc(F)c2)c1)c1cncc(F)c1 [compound 2],81.5,0.4,58.2,–,–
15,5.7,300,–,COc1cncc(C(=O)Nc2c[nH]nc2C(=O)Nc2ccc(N3CCC(F)(F)C3)nc2)c1 [compound 6],124,2.2,42.1,–,–
95,679,–,–,O=C(Nc1cccnc1)Nc1c[nH]nc1C(=O)Nc1ccc(C(F)(F)F)nc1 [compound 16],–,8.7,99.5,–,–
18,3570,–,–,COc1cncc(C#Cc2c[nH]nc2C(=O)Nc2ccc(OC3CCN(C)CC3)nc2)c1 [compound 30],–,≥ 3000,3.4,–,–
28,1210,–,–,COc1cncc(C#Cc2c[nH]nc2C(=O)Nc2ccc(OCCN3CCCC3)nc2)c1 [compound 31],–,≥ 3000,2.4,–,–
38,1270,–,–,O=C(Nc1cccnc1)c1n[nH]cc1C#Cc1cncc(OC2CCNCC2)c1 [compound 32],–,0.2,77.8,–,–
–,630,–,–,Cc1n[nH]c2cc(F)c(-c3cncc(OC4CCNC[C@@H]4F)n3)cc12 (stereo partly drawn) [compound 46],43.8,1050,100,–,–
3,–,–,41,CN(C)Cc1ccc(C(=O)Nc2cc3cc(-c4cnn(C)c4)ccc3cn2)cc1 [compound 540],–,47.4,80.7,–,–
–,–,–,36,CN1CCN(c2ccc(C(=O)Nc3cc4cc(-c5cnn(C)c5)ccc4cn3)cn2)CC1 [compound 542],–,–,–,9.5,47.6
3,–,–,60,CN(C)CCNc1cc(C(=O)Nc2cc3cc(-c4cnn(C)c4)ccc3cn2)ccn1 [compound 543],–,306,81.8,–,–
2,–,–,31,CN(C)CCOc1cc(C(=O)Nc2cc3cc(-c4cnn(C)c4)ccc3cn2)ccn1 [compound 544],–,1010,63.5,–,–
2,–,–,21,CN1CCN(c2cc(C(=O)Nc3cc4cc(-c5cnn(C)c5)c(F)cc4cn3)ccn2)CC1 [compound 546],–,0.4,97.3,–,–
3,–,–,43,CN1CCN(c2cc(C(=O)Nc3cc4c(Cl)c(-c5cnn(C)c5)ccc4cn3)ccn2)CC1 [compound 547],–,898,52.1,–,–
2,–,–,26,Cc1cc(C(=O)Nc2cc3cc(-c4cnn(C)c4)ccc3cn2)cc(N2CCN(C)CC2)n1 [compound 548],–,≥ 3000,62.4,–,–
3,–,–,26,Cn1cc(-c2ccc3cnc(NC(=O)c4ccnc(N5CC6CC5CN6)c4)cc3c2)cn1 (stereo not drawn) [compound 549],–,≥ 3000,69,–,–
–,–,–,28,CN1CCCN(c2cc(C(=O)Nc3cc4cc(-c5cnn(C)c5)ccc4cn3)ccn2)CC1 [compound 550],–,≥ 3000,66.9,–,–
–,–,–,78,CN1CCN(c2ccc(C(=O)Nc3cc4cc(-c5cnn(C)c5)ccc4cn3)cn2)CC1 [compound 551],–,–,–,1060,100.0
–,–,–,9,CN(C)C1CCN(c2cc(C(=O)Nc3cc4cc(-c5cnn(C)c5)ccc4cn3)ccn2)CC1 [compound 552],–,697,83.2,–,–

EC50 (CLK2 kinase) [nM],EC50 [3] [nM],"EC50 ([1]; concentration required to induce 50% levels of chondrogenesis with TGF-β3 as positive control, read-out: Conc (nM) of 50% TGF-β3 activity) [nM]",EC50 (CLK3 kinase) [nM],Compound,Emax [1] [%],"EC50 ([2]; Homo sapiens, Chondrocyte) [nM]","Emax ([2]; Homo sapiens, Chondrocyte) [%]",EC50 [2] [nM],Maximum % Inhibition [2] [%]
2,–,–,280,CN1CCN(c2ccc(C(=O)N3CCN(c4cc(C(=O)Nc5cc6cc(-c7cnn(C)c7)ccc6cn5)ccn4)CC3)cn2)CC1 [compound 553],–,304,52.3,–,–
1,–,–,16,CN1CCC2(CC1)CN(c1cc(C(=O)Nc3cc4cc(-c5cnn(C)c5)ccc4cn3)ccn1)C2 [compound 554],–,≥ 3000,53.7,–,–
–,–,–,34,CN1CCN(c2cc(C(=O)Nc3cc4cc(-c5cnn(C)c5N)ccc4cn3)ccn2)CC1 [compound 566],–,11.5,43.8,–,–
–,–,–,48,CN1CCc2cc(C(=O)Nc3cc4cc(-c5cn(C)nn5)ccc4cn3)ccc2C1 [compound 578],–,≥ 3000,37.6,–,–
–,–,–,20,CN1CCN(c2cc(C(=O)Nc3cc4cc(-c5cncs5)ccc4cn3)ccn2)CC1 [compound 591],22.3,423,100,–,–
5,> 10000,–,–,Fc1cccc(-c2cncc3[nH]c(-c4n[nH]c5ccc(-c6cnccn6)nc45)nc23)c1 [compound 625],–,≥ 3000,70.9,–,–
7,> 10000,–,–,COc1cccc(-c2cncc3[nH]c(-c4n[nH]c5ccc(-c6cncc(NC(=O)C7CCCCC7)c6)nc45)nc23)c1 [compound 627],–,≥ 3000,90.7,–,–
5,> 10000,–,–,Fc1ccc(-c2cccc3[nH]c(-c4n[nH]c5ccc(-c6cncnc6)nc45)nc23)cc1 [compound 628],–,≥ 3000,54.3,–,–
9,1080,–,–,O=C(Nc1cncc(-c2ccc3[nH]nc(-c4nc5c(-c6cccc(F)c6)cccc5[nH]4)c3n2)c1)C1CC1 [compound 629],–,0.2,70,–,–
8,> 10000,–,–,O=C(Nc1cncc(-c2ccc3[nH]nc(-c4nc5c(-c6ccccn6)ccnc5[nH]4)c3n2)c1)c1ccccc1 [compound 630],–,5.1,67,–,–
10,3380,–,–,O=C(Nc1cncc(-c2ccc3[nH]nc(-c4nc5c(-c6cccs6)cccc5[nH]4)c3n2)c1)C1CC1 [compound 631],–,6.7,72,–,–
3,> 10000,–,–,COc1cncc(-c2ccc3[nH]nc(-c4nc5c(N6CCCCC6)ccnc5[nH]4)c3n2)c1 [compound 632],–,123,72.2,–,–
8,3660,–,–,Fc1ccc(-c2cccc3[nH]c(-c4n[nH]c5ncc(-c6cncc(CN7CCCCC7)c6)cc45)cc23)cc1 [compound 634],–,46.1,83.8,–,–
10,6070,–,–,CN(C)CCNc1cc(F)cc(-c2cccc3[nH]c(-c4n[nH]c5ncc(-c6ccncc6)cc45)cc23)c1 [compound 635],–,4,78.5,–,–
9,97,–,–,O=C(Nc1cncc(-c2cc3c(-c4cc5c(-c6cccc(F)c6)ccnc5[nH]4)n[nH]c3cn2)c1)C1CC1 [compound 636],–,298,64.5,–,–
1900,> 10000,–,–,O=C(Nc1cc2cc(-c3cncs3)ccc2cn1)C1(F)CCCCC1 [compound 637],–,≥ 3000,39.1,–,–
9780,> 10000,–,–,CC(F)(F)CN1CCC(C(=O)Nc2cc3cc(-c4cnco4)cnc3cn2)CC1 [compound 642],–,≥ 3000,29.5,–,–

Compound,EC50 (CLK2 kinase) [nM],EC50 [3] [nM],"EC50 ([1]; concentration required to induce 50% levels of chondrogenesis with TGF-β3 as positive control, read-out: Conc (nM) of 50% TGF-β3 activity) [nM]",EC50 (CLK3 kinase) [nM],Emax [1] [%],"EC50 ([2]; Homo sapiens, Chondrocyte) [nM]","Emax ([2]; Homo sapiens, Chondrocyte) [%]",EC50 [2] [nM],Maximum % Inhibition [2] [%]
Cc1nnc(-c2ccc3cnc(NC(=O)c4ccnc(N(C)C5CCN(C)CC5)c4)cc3c2)s1 [compound 595],–,–,–,19,25.7,2.7,86.2,–,–
